The record followed here is ChEMBL document CHEMBL5550160, “Leveraging a rationally designed veliparib-based anilide eliciting anti-leukemic effects for the design of pH-responsive polymer nanoformulation” (Eur J Med Chem, 2024).

One experiment concerns the target Histone deacetylase 1 (Homo sapiens, UniProt Q13547). Put plainly: Inhibition of HDAC1 (unknown origin) using p53 residues 379 to 382 [RHKK(Ac)] as fluorogenic substrate.
Experiment [1] deals with Histone deacetylase 9 (Homo sapiens) (UniProt Q9UKV0). Put plainly: Inhibition of HDAC9 (unknown origin) assessed as residual activity at 1.37 x 10^-8M (reference value: 97.55%). The settings on record: dose 1.37 10^-8M.
The next experiment concerns the target Histone deacetylase 3 (Homo sapiens, UniProt O15379). Put plainly: Inhibition of HDAC3 (unknown origin) using p53 residues 379 to 382 [RHKK(Ac)] as fluorogenic substrate assessed as residual activity at 1.23 x 10^-7M (reference value: 103.08%). Conditions: dose 1.23 10^-7M.
Experiment [2] relates to HL-60. The experiment in a line: Induction of apoptosis in human HL-60 cells assessed as disintegration of mitochondrial nuclear condensation at 0.5 to 1 times IC50 by DAPI staining based microscopic analysis. The class given is functional, cell-based.
Another experiment deals with MDA-MB-231. Put plainly: Antiproliferative activity against human MDA-MB-231 cells assessed as inhibition of cell growth by MTT assay. The class given is functional, cell-based. A general note: Tetrazolium assays rely on reduction of a dye to a coloured formazan, in cell work by metabolically active cells.
The target in experiment [3] is T1, Histone deacetylase 7 (Homo sapiens) (UniProt Q8WUI4).
T1 sequence (whole entry): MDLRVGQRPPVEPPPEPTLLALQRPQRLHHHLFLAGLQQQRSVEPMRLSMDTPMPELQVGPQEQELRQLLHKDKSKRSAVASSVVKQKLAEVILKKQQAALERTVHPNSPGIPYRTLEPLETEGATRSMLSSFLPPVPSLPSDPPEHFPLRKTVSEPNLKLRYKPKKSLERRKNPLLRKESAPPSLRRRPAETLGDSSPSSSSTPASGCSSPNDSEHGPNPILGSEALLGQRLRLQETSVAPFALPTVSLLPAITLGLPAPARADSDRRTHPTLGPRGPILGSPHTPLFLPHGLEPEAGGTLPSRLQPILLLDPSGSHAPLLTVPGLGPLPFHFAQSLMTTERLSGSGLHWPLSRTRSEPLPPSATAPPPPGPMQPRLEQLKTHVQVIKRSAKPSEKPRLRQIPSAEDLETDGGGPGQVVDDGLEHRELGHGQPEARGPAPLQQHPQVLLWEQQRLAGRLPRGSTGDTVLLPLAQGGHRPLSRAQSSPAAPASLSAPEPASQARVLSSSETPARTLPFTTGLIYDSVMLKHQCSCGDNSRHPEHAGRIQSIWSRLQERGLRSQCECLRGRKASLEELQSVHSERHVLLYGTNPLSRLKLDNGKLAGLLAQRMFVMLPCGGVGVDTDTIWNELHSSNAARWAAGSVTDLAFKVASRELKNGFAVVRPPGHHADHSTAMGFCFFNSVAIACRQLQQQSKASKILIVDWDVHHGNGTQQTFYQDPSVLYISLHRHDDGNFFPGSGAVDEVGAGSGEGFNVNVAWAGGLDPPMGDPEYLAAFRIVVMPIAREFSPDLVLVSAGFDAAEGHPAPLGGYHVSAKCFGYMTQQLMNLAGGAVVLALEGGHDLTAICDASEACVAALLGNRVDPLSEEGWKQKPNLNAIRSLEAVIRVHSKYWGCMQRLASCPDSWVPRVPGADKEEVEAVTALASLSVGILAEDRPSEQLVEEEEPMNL
The experiment in a line: Inhibition of HDAC7 (unknown origin) assessed as residual activity at 1.52 x 10^-9M (reference value: 102.66%). Conditions: dose 1.52 10^-9M.

Experiment [4] concerns the target T2, Histone deacetylase 8 (Homo sapiens) (UniProt Q9BY41).
T2 sequence (whole entry): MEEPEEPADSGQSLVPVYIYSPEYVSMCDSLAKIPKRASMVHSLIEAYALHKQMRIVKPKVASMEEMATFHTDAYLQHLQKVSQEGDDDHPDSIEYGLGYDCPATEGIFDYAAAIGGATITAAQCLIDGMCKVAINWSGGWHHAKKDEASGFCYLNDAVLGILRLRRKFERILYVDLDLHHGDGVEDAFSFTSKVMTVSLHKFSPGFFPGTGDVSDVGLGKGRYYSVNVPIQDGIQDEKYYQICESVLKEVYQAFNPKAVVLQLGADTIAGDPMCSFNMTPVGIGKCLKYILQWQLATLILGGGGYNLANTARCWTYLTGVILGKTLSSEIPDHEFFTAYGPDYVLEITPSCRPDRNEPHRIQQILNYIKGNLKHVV
Put plainly: Inhibition of HDAC8 (unknown origin) assessed as residual activity at 1.52 x 10^-9M (reference value: 100%). Conditions: dose 1.52 10^-9M.

The target in experiment [5] is Class 1 histone deacetylase (Homo sapiens) (UniProt Q13547+O15379+Q92769+Q9BY41). Put plainly: Inhibition of class 1 HDAC in human HL-60 cells assessed as upregulation of acetyl histone H3 protein expression 0.5 to 1 times IC50 by Western blot analysis. In kind it is cell-based.
For the next experiment, the target named is Histone deacetylase 2 (Homo sapiens, UniProt Q92769). Put plainly: Inhibition of HDAC2 (unknown origin) assessed as residual activity at 5.08 x 10^-10M (reference value: 99.81%). The settings on record: dose 5.08 10^-10M.
Experiment [6] has as its system HL-60. Put plainly: Induction of cell cycle arrest in G0/G1 phase in human HL-60 cells at 0.5 to 1 times IC50 by PI staining based flow cytometry analysis. The class given is functional. In general terms: A flow cytometer gives signals particle by particle.
Experiment [7] addresses T3, Polyamine deacetylase HDAC10 (Homo sapiens) (UniProt Q969S8).
T3 sequence (whole entry): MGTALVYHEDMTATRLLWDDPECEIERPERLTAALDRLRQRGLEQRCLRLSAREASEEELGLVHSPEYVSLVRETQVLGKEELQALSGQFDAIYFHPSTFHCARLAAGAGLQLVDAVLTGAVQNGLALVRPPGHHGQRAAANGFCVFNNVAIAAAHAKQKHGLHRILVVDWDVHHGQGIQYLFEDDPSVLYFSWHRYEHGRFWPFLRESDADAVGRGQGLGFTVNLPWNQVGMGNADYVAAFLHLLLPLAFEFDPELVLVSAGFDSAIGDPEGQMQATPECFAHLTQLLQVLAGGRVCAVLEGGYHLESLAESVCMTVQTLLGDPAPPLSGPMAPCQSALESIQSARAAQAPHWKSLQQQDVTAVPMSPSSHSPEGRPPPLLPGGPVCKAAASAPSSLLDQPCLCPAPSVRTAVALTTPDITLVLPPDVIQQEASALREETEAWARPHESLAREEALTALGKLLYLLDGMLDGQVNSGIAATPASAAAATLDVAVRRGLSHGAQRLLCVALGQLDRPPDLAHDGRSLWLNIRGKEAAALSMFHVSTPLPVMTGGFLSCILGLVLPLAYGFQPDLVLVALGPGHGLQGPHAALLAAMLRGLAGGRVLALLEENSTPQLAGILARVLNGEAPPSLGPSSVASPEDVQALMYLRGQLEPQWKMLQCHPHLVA
The experiment in a line: Inhibition of HDAC10 (unknown origin) assessed as residual activity at 1 x 10^-5M (reference value: 101.54%). The settings on record: dose 1.0 10^-5M.

Calls of active or inactive are those of the source. No cut-off for these calls is given here.

Sequence of Histone deacetylase 2 (Q92769 whole entry): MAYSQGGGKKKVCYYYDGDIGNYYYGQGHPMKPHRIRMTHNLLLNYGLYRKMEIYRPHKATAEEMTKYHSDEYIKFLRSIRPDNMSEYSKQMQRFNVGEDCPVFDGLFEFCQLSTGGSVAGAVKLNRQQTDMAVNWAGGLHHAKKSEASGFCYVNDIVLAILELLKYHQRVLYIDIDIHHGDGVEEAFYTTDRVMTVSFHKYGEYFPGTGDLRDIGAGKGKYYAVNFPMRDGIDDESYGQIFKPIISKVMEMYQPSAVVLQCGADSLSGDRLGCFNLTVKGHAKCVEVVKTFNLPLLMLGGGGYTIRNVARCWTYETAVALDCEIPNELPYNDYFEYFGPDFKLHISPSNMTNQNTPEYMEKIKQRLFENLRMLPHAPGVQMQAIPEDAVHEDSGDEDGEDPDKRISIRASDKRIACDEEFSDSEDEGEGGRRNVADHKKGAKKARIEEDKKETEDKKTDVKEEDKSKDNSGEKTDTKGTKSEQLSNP
Sequence of Histone deacetylase 1 (Q13547 whole entry, the tested form may be a part): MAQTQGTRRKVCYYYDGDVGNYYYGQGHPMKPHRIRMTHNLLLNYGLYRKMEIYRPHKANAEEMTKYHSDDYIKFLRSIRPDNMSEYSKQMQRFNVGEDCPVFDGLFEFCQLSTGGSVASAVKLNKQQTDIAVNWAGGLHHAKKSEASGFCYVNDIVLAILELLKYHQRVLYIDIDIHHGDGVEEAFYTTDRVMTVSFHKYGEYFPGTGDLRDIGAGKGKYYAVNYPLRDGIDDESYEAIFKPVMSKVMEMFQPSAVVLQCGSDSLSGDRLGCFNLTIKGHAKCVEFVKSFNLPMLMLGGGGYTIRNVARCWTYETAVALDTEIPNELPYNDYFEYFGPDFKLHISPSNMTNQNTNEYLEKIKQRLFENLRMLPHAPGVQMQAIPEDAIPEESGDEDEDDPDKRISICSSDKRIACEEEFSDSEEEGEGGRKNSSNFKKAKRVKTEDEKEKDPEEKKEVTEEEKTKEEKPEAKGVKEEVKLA
Sequence of Histone deacetylase 9 (Homo sapiens) (Q9UKV0 whole entry, the tested form may be a part): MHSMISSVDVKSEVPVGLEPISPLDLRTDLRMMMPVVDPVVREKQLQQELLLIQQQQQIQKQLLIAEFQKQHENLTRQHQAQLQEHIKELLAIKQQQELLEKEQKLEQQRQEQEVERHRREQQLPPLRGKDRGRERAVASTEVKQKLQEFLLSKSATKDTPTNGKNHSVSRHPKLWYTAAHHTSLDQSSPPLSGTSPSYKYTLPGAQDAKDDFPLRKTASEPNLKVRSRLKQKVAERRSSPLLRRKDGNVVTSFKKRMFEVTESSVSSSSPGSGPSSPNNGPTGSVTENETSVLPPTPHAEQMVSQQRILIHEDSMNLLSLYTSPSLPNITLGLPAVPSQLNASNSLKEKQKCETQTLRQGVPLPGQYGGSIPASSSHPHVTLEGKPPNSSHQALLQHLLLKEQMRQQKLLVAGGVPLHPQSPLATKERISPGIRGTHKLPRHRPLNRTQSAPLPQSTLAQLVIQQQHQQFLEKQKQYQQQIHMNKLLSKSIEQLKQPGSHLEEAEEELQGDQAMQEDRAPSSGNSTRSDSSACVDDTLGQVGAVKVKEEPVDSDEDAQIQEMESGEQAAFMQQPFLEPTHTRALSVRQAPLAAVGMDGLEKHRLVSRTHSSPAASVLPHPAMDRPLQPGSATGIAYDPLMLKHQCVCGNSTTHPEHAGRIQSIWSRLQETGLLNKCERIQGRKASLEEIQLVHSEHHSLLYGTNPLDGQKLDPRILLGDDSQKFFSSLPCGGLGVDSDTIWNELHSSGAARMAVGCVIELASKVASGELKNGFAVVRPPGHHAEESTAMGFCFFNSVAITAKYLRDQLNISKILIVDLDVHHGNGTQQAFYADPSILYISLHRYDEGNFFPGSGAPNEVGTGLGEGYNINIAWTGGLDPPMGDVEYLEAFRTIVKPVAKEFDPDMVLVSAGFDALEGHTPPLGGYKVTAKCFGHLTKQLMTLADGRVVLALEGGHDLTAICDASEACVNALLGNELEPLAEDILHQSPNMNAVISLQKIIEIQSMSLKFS
Sequence of Histone deacetylase 3 (O15379 whole entry, the tested form may be a part): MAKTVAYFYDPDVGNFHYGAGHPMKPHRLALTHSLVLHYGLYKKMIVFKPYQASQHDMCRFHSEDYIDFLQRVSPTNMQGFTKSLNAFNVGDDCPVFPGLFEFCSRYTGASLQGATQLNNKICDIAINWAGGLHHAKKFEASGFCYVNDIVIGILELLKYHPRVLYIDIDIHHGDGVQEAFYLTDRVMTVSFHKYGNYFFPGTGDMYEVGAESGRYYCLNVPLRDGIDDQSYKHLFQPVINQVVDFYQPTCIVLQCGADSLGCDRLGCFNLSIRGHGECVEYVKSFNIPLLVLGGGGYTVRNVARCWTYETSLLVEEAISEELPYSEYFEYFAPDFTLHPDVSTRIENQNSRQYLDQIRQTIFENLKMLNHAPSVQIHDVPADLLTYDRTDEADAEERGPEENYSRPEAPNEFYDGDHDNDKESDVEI

The term IC50 denotes the concentration at which inhibition is half-maximal. On to `NC(=O)c1cccc2[nH]c(-c3ccc(NCc4ccc(C(=O)Nc5ccccc5N)cc4)cc3)nc12`, for which the IC50 on Histone deacetylase 1 is 0.05 µM; in the experiment on MDA-MB-231, greater than 10 µM. For the same molecule, the Activity was 84.9% in [1]; 84.1% at Histone deacetylase 3; 103% in experiment [3]; 103% in experiment [4]; 98.2% at Histone deacetylase 2; “Dose-Dependent Effect” in the experiment on HL-60 [6]. For the same molecule, in experiment [7], the Activity amounted to 72.2%. Besides, the outcome in the experiment on HL-60 [2] was inactive. Moreover, in experiment [5], the inhibition result is “Active”.
